These results are taken from PMC5815658 (Journal of Medicinal Chemistry, 2017).

As a reminder, the Kd is the constant that tells how readily two partners part at equilibrium.

The structures appear in SMILES notation.

Assay [1] concerns the target T1, pirin (Homo sapiens, UniProt O00625).
T1 sequence (O00625 1-290): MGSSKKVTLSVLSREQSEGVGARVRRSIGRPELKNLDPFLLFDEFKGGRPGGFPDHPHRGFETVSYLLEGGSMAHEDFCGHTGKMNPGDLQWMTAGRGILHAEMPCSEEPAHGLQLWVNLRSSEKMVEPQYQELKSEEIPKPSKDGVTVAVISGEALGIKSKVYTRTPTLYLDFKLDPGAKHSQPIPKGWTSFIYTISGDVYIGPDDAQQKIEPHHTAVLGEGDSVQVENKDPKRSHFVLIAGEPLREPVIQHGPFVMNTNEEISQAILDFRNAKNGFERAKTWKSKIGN
Nature of the assay: TMT MS2 whole proteome mass spectrometry in SK-OV-3 cells. Conditions: 50 nM, 4 h. The format is cell-based. Details: endogenous in cells; host or cells: SK-OV-3. As for the experimental part: PDP 16 Quantified Mass Spectrometry in SK-OV-3 Cells
SK-OV-3 cells (enough to yield 50μg total protein per sample) treated with DMSO control or 50nM PDP 16 for 4 h. Cells were then harvested and lysed by scraping in urea lysis buffer (20mM HEPES pH 8.0, 9M urea, 1mM sodium orthovanadate, 2.5mM sodium pyrophosphate, 1mM β-glycerophosphate). Samples were sonicated and cent rifuged at 20,000 x g for 15 min and the protein extract (supernatant) collected . The experiment was performed in triplicates. The protein extract samples (supernatant) were then sent to www.proteomics.com, (Accessed September 7, 2017) for analysis.
Proteome Sciences’ proprietary TMT®MS2 workflow was applied for the analysis of total proteomic protein expression. In addition, Proteome Sciences’ bioinformatics tools were applied for data normalization, data integration and statistical analysis .
We identified 107318 unique peptides and 8 785 unique protein groups. This coverage of the proteome is within our normal range for peptide and protein identifications in cell line samples. […]
component analysis (PCA) plots explaining ~64% o f the variance of statistically significant features at peptide level. This observation was consistent with the result at protein level.
Using Proteome Sciences’ proprietary TMT®MS2 workflow on a cohort of SK-OV-3 cell line samples derived from ICR’s pirin degradation probe (n=3) and DMSO control (n=3). A reference sample was created from pooling the other samples.
PAGE confirming a good sample quality. Thus, all samples were processed following TMT®MS2 workflow.
All LC-MS/MS runs passed internal quality assessments, based on total ion counts (TICs) and number of peptide spectral matches (PSMs), considering the MS method to be used for data acquisition. Labelling efficiency was over 98.5% across all fractions.
TMT®MS2 identified 8785 unique protein groups from 107318 unique peptide sequences. This is within the typical range of protein and peptide identifications from cell line samples.
Total Peptide Spectral Match: 316215
Total Unique Peptide Sequences: 107318
Total Unique Protein IDs: 8785
Median Standard Deviation and Inter Quartile Range (IQR) were measured for each sample. […]
Protein solutions of SK -OV-3 cell line samples derived from ICR’s pirin degradation probe (n=3) and DMSO control (n=3) were provided in 9M urea 20 mM HEPES, 1 mM activated sodium orthovanadate, 2.5 mM sodium pyrophosphate, 1 mM b-glycerol-phosphate at pH 8.0. […] The protein concentration of the supernatant was determined by Bradford protein assay and each sample visualized by Coomassie stained (Imperial Stain, Pierce) SDS-PAGE 4-20% gradient gels (Criterion, Biorad) using 10 µg of each sample. […]

Assay [2] addresses T1, pirin. Kind of assay: Pirin SPR (surface plasmon resonance) binding. For orientation: Surface plasmon resonance follows binding to a sensor surface in real time, without labels.
Procedure: 9 All surface plasmon resonance (SPR) experiments were carried out on a Biacore T100
enhanced to T200 sensitivity (GE Life Scienc es, Amersham Place, UK). Amine coupling chemistry was used to immobilize the
pirin protein on a research grade CM5 sensor chip. The running buffer used in the immobilization step consisted of 1 x phosph ate
using a 1:1 mixture of 100 mM N-hydroxysuccinimide and 400 mM 1 -ethyl-3-(3-dimethylaminopropyl)-carbodiimide. Pirin was
No. T6205) added to provide protection for the active site lysines. The reaction was monitored in real time and stopped when a
target immobilization level of ~5000RU was obtained. Finally, the surfa ce was blocked via an injection of 1 M ethanolamine at
pH 8.5 for 7 min. The flow rate was maintained at 10 µL/min for all the above procedures. Flow cell one was left unmodified a nd
used as the reference surface.
Following protein immobilization, the run ning buffer was changed to 1 x phosphate buffered saline containing 0.05 % (v/v)
polypropylene V-bottomed plates (Greiner, Stonehouse, UK), which became the sample plates for the SPR. For each compound,
an eight-point dose response experiment was carried out, usi ng a concentration range suitable for the estimated pK D, in a buffer
mix compatible with the Biacore running buffer. The experiments were performed at a flow rate of 30 µL/min, a sample injectio n
time of 90 seconds and a dissociation time of 200 seconds. The CM5 surface was not regenerated between sample injections.
The response units for the equilibrium analysis were measured 4 seconds prior to the end of the injection time. pK D values were
determined from analysis of the background normalized binding curv e generated from the sensorgrams, under equilibrium
as the geometric mean±standard error of the mean (SEM) from three independ ent measurements. The ratio of experimental to

Regarding `O=C1CCC(N2C(=O)c3cccc(OCCOCCOCCN4CCN(Cc5ccc6cc(C(=O)Nc7cc(NC(=O)c8ccc9c(c8)OCCO9)ccc7Cl)ccc6n5)CC4)c3C2=O)C(=O)N1` (stereo not drawn) [PDP 16, N-(2-Chloro-5-(2,3-dihydrobenzo[b][1,4]dioxine-6-carboxamido)phenyl)-2-((4-(2-(2-(2-((2-(2,6-dioxopiperidin-3-yl)-1,3-dioxoisoindolin-4-yl)oxy)ethoxy)ethoxy)ethyl)piperazin-1-yl)methyl)quinoline-6-carboxamide], at pirin [1] (8547 quantifiable proteins), the “Proteins with statistically significant (p(adj) < 0.05) difference in expression” value is given as “only pirin”. Also, on pirin [1] (TMT), the “P.Value pirin (PIR, O00625), PDP vs Veh” value is 1.64E-08; the “Reduction of pirin protein expression vs vehicle” value is reported as 2.3 fold; the “logFC pirin (PIR, O00625), PDP vs Veh” value was -1.208. On pirin [2] (Pirin SPR KD, equilibrium analysis, one site specific binding model, geometric mean n = 3), the Kd was 55 nM. The affinity at pirin [2] (Pirin SPR KD, representative single repeat, best-fit value, one site specific binding), expressed as Kd, was 56.3 nM. The molecule also had a Kd on pirin [2] (Pirin SPR pKD, mean of 3 values (unrounded), column statistics) of 54.5 nM. For the same molecule, on pirin [2] (SPR), the “Increase in affinity for recombinant pirin compared to PDP 10” value is on record as 4.2 fold and the “Measured Rmax/Theoretical Rmax” value is listed as 0.39.
